# Laboratory results reported in patent US5321030A, “Creatine analogs having antiviral activity” (priority 1991, dated 1994).
# Where two headings read alike, the source gives them in different places.
# Legend:
# [1] = system: Pseudorabies virus, Aujeszky strain; type: cell-based; details: similar assay
# HSV-1 = assay: Cytopathic effect (CPE) assay, HSV-1
# in vitro = details: monkey, vero cells
# HSV-2 = assay: Cytopathic effect (CPE) assay, HSV-2; details: Human alphaherpesvirus 2, Vero, read-out: concentration required to inhibit cytopathogenicity by 60% or 70%
# in vivo = type: in vivo; details: for survival: mouse, in vivo, read-out: Survivors/Total (%); for Weight Change: uninfected, combined animal weights day 0 to day 15
# [2] = system: herpes simplex virus type 2 (HSV-2), strain E194; assay: HSV-2 vaginitis in mice; type: in vivo, Swiss Webster female mice; details: for Mean Day to Death: virus infected
# [3] = system: Herpes Simplex Virus, Type 1, strain BW10168 (TK-); assay: microbe, parasite or virus in culture; type: cell-based; set-up: TI50 (CD50 ÷ ED50): unit not given beside the values; details: for Average CPE: virus controls 4.0
smiles,measurement,setting,value
Nc1nc2c(ncn2COCCO)c(=O)[nH]1 [acyclovir],effect against Pseudorabies virus,[1],ineffective
same,EC65,"HSV-1; Human alphaherpesvirus 1, Vero, read-out: dose required to inhibit cytopathogenicity by 65%",0.97 µM
same,EC50,"HSV-1; Human alphaherpesvirus 1, read-out: in vitro ED50",7 µM
same,CC50,in vitro,> 1000 µg/mL
same,EC (60 or 70),HSV-2,1.95 µM
same,survival,in vivo; 25 mg/kg,100%
same,survival,in vivo; 50 mg/kg,100%
same,survival,in vivo; 100 mg/kg,100%
same,survival,in vivo; 200 mg/kg,100%
same,Weight Change,in vivo; ACV 25 mg/kg,2.8 g
same,Weight Change,in vivo; ACV 50 mg/kg,4.0 g
same,Weight Change,in vivo; ACV 100 mg/kg,3.5 g
same,Weight Change,in vivo; ACV 200 mg/kg,4.8 g
same,average lesion score,"[2]; 25 mg/kg/day gavage, Grand Ave. (Days 3-14)",1.5 ± 0.6
same,average lesion score,"[2]; 25 mg/kg/day gavage, day 3",0.1 ± 0.2
same,average lesion score,"[2]; 25 mg/kg/day gavage, day 5",1.3 ± 1.5
same,average lesion score,"[2]; 25 mg/kg/day gavage, day 6",1.3 ± 1.3
same,average lesion score,"[2]; 25 mg/kg/day gavage, day 7",1.7 ± 1.6
same,average lesion score,"[2]; 25 mg/kg/day gavage, day 8",2.1 ± 1.5
same,average lesion score,"[2]; 25 mg/kg/day gavage, day 9",2.1 ± 1.4
same,average lesion score,"[2]; 25 mg/kg/day gavage, day 10",2.0 ± 1.2
same,average lesion score,"[2]; 25 mg/kg/day gavage, day 11",1.9 ± 1.3
same,average lesion score,"[2]; 25 mg/kg/day gavage, day 12",1.9 ± 1.4
same,average lesion score,"[2]; 25 mg/kg/day gavage, day 13",1.8 ± 1.5
same,average lesion score,"[2]; 25 mg/kg/day gavage, day 14",1.8 ± 1.5
same,average lesion score,"[2]; 50 mg/kg/day gavage, Grand Ave. (Days 3-14)",0.8 ± 0.3
same,average lesion score,"[2]; 50 mg/kg/day gavage, day 3",0.0 ± 0.0
same,average lesion score,"[2]; 50 mg/kg/day gavage, day 4",0.2 ± 0.3
same,average lesion score,"[2]; 50 mg/kg/day gavage, day 5",1.0 ± 1.8
same,average lesion score,"[2]; 50 mg/kg/day gavage, day 6",0.5 ± 0.7
same,average lesion score,"[2]; 50 mg/kg/day gavage, day 7",0.8 ± 1.2
same,average lesion score,"[2]; 50 mg/kg/day gavage, day 8",0.8 ± 0.9
same,average lesion score,"[2]; 50 mg/kg/day gavage, day 10",0.9 ± 1.2
same,average lesion score,"[2]; 50 mg/kg/day gavage, day 11",0.9 ± 1.2
same,average lesion score,"[2]; 50 mg/kg/day gavage, day 12",0.9 ± 1.2
same,average lesion score,"[2]; 50 mg/kg/day gavage, day 14",1.0 ± 1.3
same,average lesion score,"[2]; 100 mg/kg/day gavage, Grand Ave. (Days 3-14)",0.7 ± 0.4
same,average lesion score,"[2]; 100 mg/kg/day gavage, day 3",0.1 ± 0.2
same,average lesion score,"[2]; 100 mg/kg/day gavage, day 4",0.2 ± 0.3
same,average lesion score,"[2]; 100 mg/kg/day gavage, day 5",0.4 ± 0.4
same,average lesion score,"[2]; 100 mg/kg/day gavage, day 6",0.5 ± 0.5
same,average lesion score,"[2]; 100 mg/kg/day gavage, day 7",0.6 ± 0.7
same,average lesion score,"[2]; 100 mg/kg/day gavage, day 8",0.8 ± 0.9
same,average lesion score,"[2]; 100 mg/kg/day gavage, day 9",0.9 ± 0.9
same,average lesion score,"[2]; 100 mg/kg/day gavage, day 10",1.4 ± 1.2
same,average lesion score,"[2]; 100 mg/kg/day gavage, day 11",1.0 ± 1.3
same,average lesion score,"[2]; 100 mg/kg/day gavage, day 12",1.1 ± 1.3
same,average lesion score,"[2]; 100 mg/kg/day gavage, day 13",0.8 ± 0.9
same,average lesion score,"[2]; 100 mg/kg/day gavage, day 14",0.7 ± 0.9
same,average lesion score,"[2]; 200 mg/kg/day gavage, Grand Ave. (Days 3-14)",0.6 ± 0.3
same,average lesion score,"[2]; 200 mg/kg/day gavage, day 3",0.1 ± 0.2
same,average lesion score,"[2]; 200 mg/kg/day gavage, day 4",0.1 ± 0.2
same,average lesion score,"[2]; 200 mg/kg/day gavage, day 5",0.4 ± 0.5
same,average lesion score,"[2]; 200 mg/kg/day gavage, day 6",0.2 ± 0.3
same,average lesion score,"[2]; 200 mg/kg/day gavage, day 7",0.4 ± 0.5
same,average lesion score,"[2]; 200 mg/kg/day gavage, day 8",0.7 ± 0.6
same,average lesion score,"[2]; 200 mg/kg/day gavage, day 9",0.9 ± 0.7
same,average lesion score,"[2]; 200 mg/kg/day gavage, day 10",1.0 ± 0.6
same,average lesion score,"[2]; 200 mg/kg/day gavage, day 11",0.7 ± 0.7
same,average lesion score,"[2]; 200 mg/kg/day gavage, day 12",0.7 ± 0.7
same,average lesion score,"[2]; 200 mg/kg/day gavage, day 13",0.8 ± 0.7
same,average lesion score,"[2]; 200 mg/kg/day gavage, day 14",0.7 ± 0.7
same,activity in vaginitis model,[2]; 5% cream topical,very effective
same,average lesion score,"[2]; acyclovir 5% cream topical, Grand Ave. (Days 3-14)",0.3 ± 0.2
same,average lesion score,"[2]; acyclovir 5% cream topical, day 3",0.1 ± 0.1
same,average lesion score,"[2]; acyclovir 5% cream topical, day 4",0.1 ± 0.1
same,average lesion score,"[2]; acyclovir 5% cream topical, day 5",0.1 ± 0.2
same,average lesion score,"[2]; acyclovir 5% cream topical, day 6",0.2 ± 0.2
same,average lesion score,"[2]; acyclovir 5% cream topical, day 7",0.2 ± 0.2
same,average lesion score,"[2]; acyclovir 5% cream topical, day 8",0.2 ± 0.3
same,average lesion score,"[2]; acyclovir 5% cream topical, day 9",0.2 ± 0.2
same,average lesion score,"[2]; acyclovir 5% cream topical, day 10",0.6 ± 0.8
same,average lesion score,"[2]; acyclovir 5% cream topical, day 11",0.5 ± 0.7
same,average lesion score,"[2]; acyclovir 5% cream topical, day 12",0.3 ± 0.6
same,average lesion score,"[2]; acyclovir 5% cream topical, day 13",0.3 ± 0.6
same,average lesion score,"[2]; acyclovir 5% cream topical, day 14",0.3 ± 0.6
same,Mean Day to Death,[2]; ACV 25 mg/kg,10.4 ± 2.5
same,Mean Day to Death,[2]; ACV 50 mg/kg,11.3 ± 2.1
same,Mean Day to Death,[2]; ACV 100 mg/kg,12.0 ± 1.4
same,Mean Day to Death,[2]; ACV 200 mg/kg,11.3 ± 2.5
same,Average CPE,[3]; Acyclovir 1.0 μg/ml,4.0
same,Average CPE,[3]; Acyclovir 3.2 μg/ml,3.2
same,Average CPE,[3]; Acyclovir 10 μg/ml,1.5
same,Average CPE,[3]; Acyclovir 32 μg/ml,0.3
same,Average CPE,[3]; Acyclovir 100 μg/ml,0.5
same,Average CPE,[3]; Acyclovir 316 μg/ml,0.2
same,Average CPE,[3]; Acyclovir 1000 μg/ml,0
same,EC50,"[3]; Human alphaherpesvirus 1, Vero, read-out: ED50, Vero cells, Table 8",10.6 µg/mL
same,TI50 (CD50 ÷ ED50),"[3]; Vero cells, Table 8",> 94
